Measurements taken from patent publication US20210106687A1, “BOLAAMPHIPHILIC COMPOUNDS, COMPOSITIONS AND USES THEREOF” (Lauren Sciences LLC, priority 2012, published 2021).

Experiments:
[1] = system: b.End3 cells; experiment: Internalization of CF by the cells in vitro, confocal fluorescence microscopy; format: cell-based, mouse; settings: 5 h at 37° C.; FIG. 4
Method: b.End3 cells were grown on 24-well plates or on coverslips (for FACS and fluorescence microscopy analysis, respectively). The medium was replaced with culture medium without serum and CF solution, or tested bolavesicles (equivalent to 0.5 μg/mL CF), or equivalent volume of the medium were added to the cells and incubated for 5 hr at 4° C. or at 37° C. At the end of the incubation, cells were extensively washed with complete medium and with PBS, and were either detached from the plates using trypsin-EDTA solution (Biological Industries Ltd., Beit Haemek, Israel) and analyzed by FACS (FACSCalibur Flow Cytometer, BD Biosciences, USA), or fixed with 2.5% formaldehyde in PBS, washed twice with PBS, mounted on slides using Mowiol-based mounting solution and analyzed using a FV1000-IX81 confocal microscope (Olympus, Tokyo, Japan) equipped with 60× objective. All the images were acquired using the same imaging settings and were not corrected or modified.

[2] = system: b.End3 cells; experiment: Internalization of CF by the cells in vitro, FACS; format: cell-based, mouse; settings: equivalent to 0.5 μg/mL CF
Method: b.End3 immortalized mouse brain capillary endothelium cells were kindly provided by Prof Philip Lazarovici (Institute for Drug Research, School of Pharmacy, The Hebrew University of Jerusalem, Israel). The b.End3 cells were cultured in DMEM medium supplemented with 10% fetal bovine serum, 2 mM L-Glutamine, 100 IU/mL penicillin and 100 μg/mL streptomycin (Biological Industries Ltd., Beit Haemek, Israel). The cells were maintained in an incubator at 37° C. in a humidified atmosphere with 5% CO2.
All the images were acquired using the same imaging settings and were not corrected or modified.
The inventors investigated whether this trend is still apparent in the interaction of magnetic and non-magnetic bolavesicles with brain capillary endothelial cells. To this end, the inventors used murine b.End3 cells, which are one of the most extensively used cell lines for brain uptake and permeability studies^25. […] Previously, the inventors extensively used ^b.End3 cells to analyze uptake and intracellular fate of bolavesicles encapsulating model proteins and marker compounds^8.

carboxyfluorescein [CF]
Endocytosis of CF by b.End3 cells (confocal microscopy) [1]: endocytosed by the bEnd.3 cells only when encapsulated within the bolavesicles
Internalization by b.End3 cells (FACS) ([2]; 5 hr at 4° C.): not able to internalize
Internalization by b.End3 cells (FACS) ([2]; 5 hr at 37° C.): not able to internalize
